Data as given in patent US20240109881A1, “Heteroaryl Compounds as Ligand Directed Degraders of IRAK4” (Bristol-Myers Squibb Company, priority 2022, published 2024).

Legend:
IRAK4 [1] = target: T1, IRAK4 (Homo sapiens, UniProt Q9NWZ3); assay: ALE THP1 HTRF (Advanced Lipoxidation End Product THP1 Homogeneous Time Resolved Fluorescence); type: cell-based; settings: THP1 cells
T1 construct: endogenous in cells; host or cells: THP-1 cells
T1 sequence (Q9NWZ3 1-460): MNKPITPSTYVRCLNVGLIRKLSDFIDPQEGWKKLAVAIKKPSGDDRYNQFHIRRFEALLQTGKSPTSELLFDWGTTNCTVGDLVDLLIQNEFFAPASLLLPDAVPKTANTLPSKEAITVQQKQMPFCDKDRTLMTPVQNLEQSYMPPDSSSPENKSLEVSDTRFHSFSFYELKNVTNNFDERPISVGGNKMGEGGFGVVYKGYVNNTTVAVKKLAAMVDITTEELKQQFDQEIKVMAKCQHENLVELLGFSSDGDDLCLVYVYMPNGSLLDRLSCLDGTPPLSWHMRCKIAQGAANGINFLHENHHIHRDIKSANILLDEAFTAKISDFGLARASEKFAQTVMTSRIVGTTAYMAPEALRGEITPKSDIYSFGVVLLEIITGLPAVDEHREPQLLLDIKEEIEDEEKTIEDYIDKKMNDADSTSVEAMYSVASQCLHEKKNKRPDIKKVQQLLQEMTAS
Method: For Homogenous Time Resolved Fluorescence (HTRF) assays, a Cisbio HTRF kit was used, which included: Lysis Buffer #1 4×, Blocking Reagent #3 100×, 20× Antibody 1 (Anti-IRAK4 d2), 20× Antibody 2 (Anti-IRAK4 k), and Detection Buffer.
4× Lysis Buffer was stored at 4° C. For use as 1× Lysis buffer, the 4× solution was diluted with de-ionized water (distilled water, Gibco Cat. #15230279) and 100× Blocking Reagent in a 1:3:0.04 volume ratio.
20× Antibody Solution aliquots were stored in −80° C. and the Detection Buffer was stored in 4° C. For use as a 1× Antibody Solution, the 20× Antibody Solution aliquot was diluted with Detection Buffer in a 1:19 volume ratio.
Cells were lysed at room temperature for 45 min with shaking. A BCA protein assay was performed and normalization was conducted to the desired total protein concentration with 1× lysis buffer. Next, 1× Antibody Solutions were prepared by adding 380 μL Detection Buffer to 20 μL 20× Antibody Solution aliquots and mixing well. 1× Antibody Solutions were combined 1:1 and briefly vortexed. For control wells, 20 μL 1× anti IRAK4-k Antibody Solution was saved. The 384-well plate (ProxiPlate-384 Plus, Perkin Elmer Cat. #6008289) was loaded by adding 4 μL of the mixed Antibody Solution to empty wells using a single channel repeater. Using a multi-channel repeater, 16 μL lysate was added per well, and any bubbles that were formed were popped with 20 μL pipette tips and Kimwipe edges. In column 10, triplicates of each control was prepared. In wells A10, B10, and C10, buffer control was prepared by adding 16 μL Lysis Buffer and 4 μL Detection Buffer. In wells D10, E10, and F10, cryptate control was prepared by adding 16 μL Lysis Buffer, 2 μL Detection Buffer, and 2 μL 1× anti IRAK4-k Antibody Solution. In wells G10, H10, and I10, a negative control was prepared by adding 16 μL Lysis Buffer and 4 μL mixed Antibody Solution. The plate was sealed with a clear seal and covered with an aluminum lid. The plate was spun down at 800 g for 5 min and incubated in the dark at room temperature overnight. The next day, the plate was spun down at 800 g for 5 min. The samples were analyzed by a plate reader (Envision, PerkinElmer) using the Desnor 384 HTRF program.

IRAK4 [2] = target: T1, IRAK4; assay: LVL THP1 HTRF (THP1 Homogeneous Time Resolved Fluorescence); type: cell-based; settings: THP1 cells, 18 h incubation with compound; for DC50: read-out: LVL THP1 HTRF EC50
Summary of the method: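 IRAK4 HTRF read-out (665/615 nm ratio, anti-IRAK4 d2 acceptor and K donor, 18 h dark incubation at room temperature) on lysates of THP-1 cells. Cells were treated 18 h at 37° C. with 20 nL compound in DMSO, in colorless RPMI with 10% FBS, with a duplicate CTG plate.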

SMILES	ALE THP1 HTRF YMIN (IRAK4 [1])	EC50 (IRAK4 [1])	LVL THP1 HTRF YMIN (IRAK4 [2])	DC50 (IRAK4 [2])
O=C1CCC(N2C(=O)c3ccc(N4CCN(C(=O)C5CCC(NC(=O)c6cnc(Nc7ccc8ncsc8c7)cc6NC6CCCC6)CC5)CC4)cc3C2=O)C(=O)N1 (centres unmarked) [P-2]	32.7%	0.097 µM		
O=C1CCC(N2C(=O)c3ccc(N4CCN(C[C@H]5CC[C@H](NC(=O)c6cnc(Nc7ccc8ncsc8c7)cc6NC6CCCC6)CC5)CC4)cc3C2=O)C(=O)N1 (some centres unmarked) [P-3, 6-(1,3-benzothiazol-6-ylamino)-4-(cyclopentylamino)-N-[4-[[4-[2-(2,6-dioxo-3-piperidyl)-1,3-dioxo-isoindolin-5-yl]piperazin-1-yl]methyl]cyclohexyl]pyridine-3-carboxamide]	35.6%	0.273 µM		
CS(=O)(=O)N1CCC(Nc2cc(Nc3ccc4ncsc4c3)ncc2C(=O)NC2CCC(C(=O)N3CCN(c4ccc5c(c4)C(=O)N(C4CCC(=O)NC4=O)C5=O)CC3)CC2)CC1 (centres unmarked) [P-4, 6-(1,3-benzothiazol-6-ylamino)-N-[4-[4-[2-(2,6-dioxo-3-piperidyl)-1,3-dioxo-isoindolin-5-yl]piperazine-1-carbonyl]cyclohexyl]-4-[(1-methylsulfonyl-4-piperidyl)amino]pyridine-3-carboxamide]	35.8%	0.047 µM		
O=C1CCC(N2C(=O)c3ccc(N4CCC(C(=O)NC5CCC(n6cc(-c7cnc(Nc8ccc9ncsc9c8)cc7NC7CCCC7)nn6)CC5)CC4)cc3C2=O)C(=O)N1 (centres unmarked) [P-5]	17.1%	0.054 µM		
N#Cc1cnc2c(ccn2-c2cc(NC3CCCC3)c(C(=O)NC3CCC(C(=O)N4CCN(c5ccc6c(c5)C(=O)N(C5CCC(=O)NC5=O)C6=O)CC4)CC3)cn2)c1 (centres unmarked) [P-6]	30.4%	0.018 µM		
O=C1CCC(N2C(=O)c3ccc(N4CCN(C(=O)C5CCC(NC(=O)c6cnc(Nc7ccn8nccc8n7)cc6NC6CCCC6)CC5)CC4)cc3C2=O)C(=O)N1 (centres unmarked) [P-7]	30.8%	0.037 µM		
C[C@H]1CN(c2ccc3c(c2)C(=O)N(C2CCC(=O)NC2=O)C3=O)CCN1C(=O)C1CCC(NC(=O)c2cnc(Nc3ccc4ncsc4c3)cc2NC2CCCC2)CC1 (some centres unmarked) [P-8]	40.8%	0.027 µM		
O=C1CCC(N2C(=O)c3ccc(N4CCN(C(=O)[C@H]5CC[C@H](n6cc(-c7cnc(Nc8ccc9ncsc9c8)cc7NC7CCCC7)nn6)CC5)CC4)cc3C2=O)C(=O)N1 (some centres unmarked) [P-9]	20.0%	0.025 µM		
N#Cc1cnc2c(cnn2-c2cc(NC3CCCC3)c(C(=O)NC3CCC(C(=O)N4CCN(c5ccc6c(c5)C(=O)N(C5CCC(=O)NC5=O)C6)CC4)CC3)cn2)c1 (centres unmarked) [P-10]	34.8%	0.087 µM		
O=C1CCC(c2ccc(NCC3CCN(C(=O)C4CCC(NC(=O)c5cnc(Nc6ccc7ncsc7c6)cc5NC5CCCC5)CC4)CC3)cc2)C(=O)N1 (centres unmarked) [P-11]	47.5%	0.001 µM		
O=C1CCC(N2C(=O)c3ccc(N4CCN(C(=O)C5CCC(NC(=O)c6cnc(Nc7ccc8ncoc8c7)cc6NC6CCCC6)CC5)CC4)cc3C2=O)C(=O)N1 (centres unmarked) [P-12]	47.7%			
C[C@@H]1CN(c2ccc3c(c2)C(=O)N(C2CCC(=O)NC2=O)C3=O)C[C@H](C)N1C(=O)C1CCC(NC(=O)c2cnc(-n3ncc4cc(C#N)cnc43)cc2NC2CCCC2)CC1 (some centres unmarked) [P-13]	43.4%	0.082 µM		

Next, values leading:

ALE THP1 HTRF YMIN (IRAK4 [1])	EC50 (IRAK4 [1])	LVL THP1 HTRF YMIN (IRAK4 [2])	DC50 (IRAK4 [2])	SMILES
15.6%	0.024 µM			N#Cc1cnc2c(cnn2-c2cc(NC3CC3)c(C(=O)N[C@H]3CC[C@H]([C@@H]4C[C@H]4N4CCN(c5ccc(C6CCC(=O)NC6=O)cc5)CC4)CC3)cn2)c1 (relative stereo) [P-111]
7.4%	0.011 µM			CC1(c2ccc(N3CCN(CCC4CCC(NC(=O)c5cnc(-n6ncc7cc(C#N)cnc76)cc5NC5CC5)CC4)CC3)cc2)CCC(=O)NC1=O (single isomer, unassigned) [P-94]
16.0%	0.019 µM			N#Cc1cnc2c(cnn2-c2cc(NC3CC3)c(C(=O)N[C@H]3CC[C@H](C4C[C@@H]4N4CCN(c5ccc(C6CCC(=O)NC6=O)cc5)CC4)CC3)cn2)c1 (single isomer, unassigned) [P-110]
9.8%	0.01 µM			N#Cc1cnc2c(cnn2-c2cc(NC3CC3)c(C(=O)N[C@H]3CC[C@H](CCN4CCC(c5ccc(C6(F)CCC(=O)NC6=O)cc5)CC4)CC3)cn2)c1 (single isomer, unassigned) [P-125]
14.9%	0.296 µM			N#Cc1cnc2c(cnn2-c2cc(NC3CC3)c(C(=O)N[C@H]3CC[C@H](CCN4CCC(c5ccc(C6(F)CCC(=O)NC6=O)cc5)CC4)CC3)cn2)c1 (single isomer, unassigned) [P-126]
14.7%	0.047 µM			C[C@H](C#N)Nc1cc(-n2ncc3cc(C#N)cnc32)ncc1C(=O)N[C@H]1CC[C@H](CCN2CCN(c3ccc(C4CCC(=O)NC4=O)cc3)CC2)CC1 (stereo in doubt) [P-128]
24.0%	0.095 µM			N#Cc1cnc2c(cnn2-c2cc(NC3CCCC3)c(C(=O)NC3CCC(C(=O)N4CCC(c5ccc6c(c5)C(=O)N(C5CCC(=O)NC5=O)C6)CC4)CC3)cn2)c1 (centres unmarked) [P-14]
31.8%	0.026 µM			CC(C)Nc1cc(-n2ncc3cc(C#N)cnc32)ncc1C(=O)N[C@H]1CC[C@H](CN2CCN(c3ccc4c(c3)C(=O)N(C3CCC(=O)NC3=O)C4)CC2)CC1 (some centres unmarked) [P-15]
		84.3%	1 µM	Cc1cc(N2CC[C@H]3[C@@H]2CCN3CC[C@H]2CC[C@H](NC(=O)c3cnc(-n4ncc5cc(C#N)cnc54)cc3N[C@H](C)C#N)CC2)ccc1N1CCC(=O)NC1=O [P-489]
		81.6%	1 µM	Cc1cc(N2CC[C@H]3[C@@H]2CCN3CC[C@H]2CC[C@H](NC(=O)c3cnc(-n4ncc5cc(C#N)cnc54)cc3N[C@H](C)C#N)CC2)ccc1N1CCC(=O)NC1=O [P-490]
		2.7%	0.127 µM	C[C@H](C#N)Nc1cc(-n2ncc3cc(C#N)cnc32)ncc1-n1cc([C@H]2CC[C@H](CCN3C[C@@H](C)N(c4ccc(N5CCC(=O)NC5=O)cc4)C[C@H]3C)CC2)nn1 [P-496]
		−2.8%	0.002 µM	C[C@H](C#N)Nc1cc(-n2ncc3cc(C#N)cnc32)ncc1-n1cc([C@H]2CC[C@H](CCN3CCN(c4ccc5c(N6CCC(=O)NC6=O)nn(C)c5c4)[C@H](C)C3)CC2)nn1 [P-498]
		13.6%	0.172 µM	C[C@H](C#N)Nc1cc(-n2ncc3cc(C#N)cnc32)ncc1-n1cc(C2CCC(N3CCN(c4ccc(N5CCC(=O)NC5=O)cc4)CC3)CC2)nn1 (stereo partly drawn) [P-499, 1-(4-(((R)-1-cyanoethyl)amino)-5-(4-(4-(4-(4-(2,4-dioxotetrahydropyrimidin-1(2H)-yl)phenyl)piperazin-1-yl)cyclohexyl)-1H-1,2,3-triazol-1-yl)pyridin-2-yl)-1H-pyrazolo[3,4-b]pyridine-5-carbonitrile]
		−2.28%	0.0022 µM	C[C@H](C#N)Nc1cc(-n2ncc3cc(C#N)cnc32)ncc1-c1cn([C@H]2CC[C@H](CCN3CCN(c4ccc(N5CCC(=O)NC5=O)cc4)[C@H](C)C3)CC2)nn1 [P-501]
		−0.79%	0.0012 µM	C[C@H](C#N)Nc1cc(-n2ncc3cc(C#N)cnc32)ncc1-n1cc([C@H]2CC[C@H](CCN3CCN(c4ccc5c(N6CCC(=O)NC6=O)nn(C)c5c4)[C@@H](C)C3)CC2)nn1 [P-502]
